One series deals with Male Sprague-Dawley Rats. The series can be described thus: Serum clinical chemistries in rats fed compound as dietary admixture. The format is in vivo. The following applies: % of control; alanine aminotransferase in rat serum; diet 0.3%, 4 days; N = 5. The source says: (§1) A typical experiment consists of 4-6 groups of rats (N = 5 per group) with I group being a control which receives no MDL compound and the other groups being treated with 0.3% MDL compound. Some of the compounds are either repeated at 0.3% or evaluated again at the lower dose of 0.1%. House Male Sprague-Dawley rats, 50-100 g, (Harlan Laboratories, Indianapolis, IN) in groups of 5, feeding ad libitum water and Purina Rodent chow (#5002) with or without MDL compound as a dietary admixture for 4 days. Make dietary admixtures (0.3%) by mixing 1.2 grams of an MDL compound with 400 grams of Purina rodent chow (#5002). Mix the MDL compound with approximately 50 grams of food using a mortar and pestle. This is added to the remainder of the food and mixed for 3 hours on a rotary mixer. In the morning of day 5, anesthetize non-fasted rats with carbon dioxide, and collect blood by cardiac puncture. Sacrifice rats by cervical dislocation. Record body weights and liver weights in grams. Record food consumption as grams • day^-1 • rat^-1. Deaths are recorded as mortality. Use aliquots of fresh serum for clinical chemistries, thiobarbituric acid reactive substances (TBARS) and conjugated diene measurements. Freeze aliquots of serum (∼ 0.5mL) and whole livers at -20°C for compound and metabolite concentration determination at a later time.
Allow blood to clot at room temperature for 30 minutes. Obtain serum after centrifugation for 10 min at 4°C at 3000 rpm in a Beckman J-6M/E centrifuge with a JS-4.2 rotor. Analyze fresh serum by a COBAS MIRA S autoanalyzer (Roche Diagnostics) using Roche diagnostic reagents for the following clinical chemistry measurements: alkaline phosphatase (ALP, kit # 44553), alanine transaminase (ALT, kit # 42375), aspartate aminotransferase (AST, kit # 42381), total cholesterol (CHOL, kit # 44334), triglyceride (TG, kit # 44120), and glucose (GLU, kit # 44558). Calculate ALP, ALT, and AST as units/L. Calculate cholesterol, triglycerides, and glucose as mg/dL.
As to `CC(C)CCCC(C)CCOc1ccc(O)c(C(C)(C)C)c1` (centres unmarked) [MDL 104,191, Phenol, 2-(1,1-dimethylethyl)-4-[(3,7-dimethyloctyl)oxy]-], the ALT was determined as 149%.

On to `CC(C)=CCC[C@@H](C)CCOc1cc(C(C)(C)C)c(O)c(C(C)(C)C)c1` [MDL 104,535, Phenol, 2,6-bis(1,1-dimethylethyl)-4-[(3,7-dimethyl-6-octenyl)oxy]-,(R)-], for which the ALT is 108%.

Still in this series, the particulars now being: % of control; alkaline phosphatase in rat serum; diet 0.3%, 4 days; N = 5.
Take `CC(C)CCCC(C)CCOc1ccc(O)c(C(C)(C)C)c1` (centres unmarked) [MDL 104,191, Phenol, 2-(1,1-dimethylethyl)-4-[(3,7-dimethyloctyl)oxy]-]: the ALP is 81%.

On to `CC(C)=CCC[C@@H](C)CCOc1cc(C(C)(C)C)c(O)c(C(C)(C)C)c1` [MDL 104,535, Phenol, 2,6-bis(1,1-dimethylethyl)-4-[(3,7-dimethyl-6-octenyl)oxy]-,(R)-], for which the ALP was 151%.

The same series, now with this note: % of control; aspartate aminotransferase in rat serum; diet 0.3%, 4 days; N = 5.
For the molecule `CC(C)CCCC(C)CCOc1ccc(O)c(C(C)(C)C)c1` (centres unmarked) [MDL 104,191, Phenol, 2-(1,1-dimethylethyl)-4-[(3,7-dimethyloctyl)oxy]-], the AST was found to be 146%.

In the case of `CC(C)=CCC[C@@H](C)CCOc1cc(C(C)(C)C)c(O)c(C(C)(C)C)c1` [MDL 104,535, Phenol, 2,6-bis(1,1-dimethylethyl)-4-[(3,7-dimethyl-6-octenyl)oxy]-,(R)-], the AST turned out to be 94%.

The series is the same for the next values; noted with them: % of control; glucose in rat serum; diet 0.3%, 4 days; N = 5.
As to `CC(C)CCCC(C)CCOc1ccc(O)c(C(C)(C)C)c1` (centres unmarked) [MDL 104,191, Phenol, 2-(1,1-dimethylethyl)-4-[(3,7-dimethyloctyl)oxy]-], the GLUC was found to be 106%.

Take `CC(C)=CCC[C@@H](C)CCOc1cc(C(C)(C)C)c(O)c(C(C)(C)C)c1` [MDL 104,535, Phenol, 2,6-bis(1,1-dimethylethyl)-4-[(3,7-dimethyl-6-octenyl)oxy]-,(R)-]: the GLUC was 112%.

The series is the same for the next values; noted with them: feed or water, 96 h; % of control; total cholesterol in rat serum; diet 0.3%, 4 days; N = 5; read-out: CHOL.
For `CC(C)CCCC(C)CCOc1ccc(O)c(C(C)(C)C)c1` (centres unmarked) [MDL 104,191, Phenol, 2-(1,1-dimethylethyl)-4-[(3,7-dimethyloctyl)oxy]-], the response vs control in vivo at 0.3 % in diet is 109%.

On to `CC(C)=CCC[C@@H](C)CCOc1cc(C(C)(C)C)c(O)c(C(C)(C)C)c1` [MDL 104,535, Phenol, 2,6-bis(1,1-dimethylethyl)-4-[(3,7-dimethyl-6-octenyl)oxy]-,(R)-], for which the response vs control in vivo at 0.3 % in diet came out at 103%.

The series is the same for the next values; noted with them: feed or water, 96 h; % of control; triglycerides in rat serum; diet 0.3%, 4 days; N = 5; read-out: TRIG.
In the case of `CC(C)CCCC(C)CCOc1ccc(O)c(C(C)(C)C)c1` (centres unmarked) [MDL 104,191, Phenol, 2-(1,1-dimethylethyl)-4-[(3,7-dimethyloctyl)oxy]-], the response vs control in vivo at 0.3 % in diet came out at 112%.

As to `CC(C)=CCC[C@@H](C)CCOc1cc(C(C)(C)C)c(O)c(C(C)(C)C)c1` [MDL 104,535, Phenol, 2,6-bis(1,1-dimethylethyl)-4-[(3,7-dimethyl-6-octenyl)oxy]-,(R)-], the response vs control in vivo at 0.3 % in diet stood at 60%.

For another series, the system named is ICAM-1. Put plainly: Inhibition of cytokine-induced ICAM-1 expression in human aortic smooth muscle cells (cell ELISA). In kind it is cell-based. To be noted: HASMC, tumor necrosis factor-alpha stimulated, average of two runs, numbers in parentheses represent negative values, read-out: ICAM-1 (% inh. 50 µM). How it is done: (§2) Plate proliferating human umbilical vein endothelial cells (HUVEC) or human aortic smooth muscle cells (HASMC) from Clonetics (San Diego, CA) onto 96-well plates in 100 µL medium per well at 20,000 cells per cm^2. Maintain the cultures in growth medium (EGM or SMGM2, Clonetics, San Diego, CA) for two days prior to addition of cytokines or drugs. Add cytokines plus or minus compounds for 20 to 24 hours prior to analysis for adhesion molecule levels. Add tumor necrosis factor (Genzyme, Cambridge, MA) to cultures at 500-1000 units/mL to stimulate ICAM-1 expression. Add interleukin-4 (GIBCO-BRL, Gaithersburg, MD) to cultures at 100-200 pg/mL to stimulate VCAM-1 expression. […] Remove the culture medium, and wash the monolayers twice with Hanks buffered saline solution (HBSS) at room temperature. Add the primary antibody (anti-human VCAM-1 from Upstate Biotechnology, Inc., Lake Placid, NY or anti-human ICAM-1 from Immunotech, Inc., Westbrook, ME) to each well (1 µg/mL in HBSS plus 5% newborn calf serum, GIBCO-BRL, Gaithersburg, MD) and incubate at 37°C for 1 hr. Wash the wells twice with HBSS, then add 100 µL of a 1/1000 dilution of goat anti-mouse IgG conjugated to horse radish peroxidase (BioRad, Hercules, CA) in HBSS plus 5% newborn calf serum to each well and incubated for 1 hr at 37°C. Wash the wells three times with HBSS, then add 100 µL of TMB substrate (BioRad, Hercules, CA) to each well. Stop the reaction after blue color develops by addition of 50 µL of IN H2SO4. Measure absorbance at 450 nm with a plate reader.
(§3) Table 1 summarizes the ability of selected compounds of this invention to inhibit VCAM-1 and ICAM-1 using human aortic smooth muscle cells (HASMC). In these experiments, the cells were coincubated with interleukin-4 to stimulate VCAM-1 expression and with tumor necrosis factor-alpha to stimulate ICAM-1 expression.
For the molecule `CC(C)CCCC(C)CCOc1ccc(O)c(C(C)(C)C)c1` (centres unmarked) [MDL 104,191, Phenol, 2-(1,1-dimethylethyl)-4-[(3,7-dimethyloctyl)oxy]-], the inhibition at 50 µM came out at 22%.

On to `CC(C)=CCC[C@@H](C)CCOc1cc(C(C)(C)C)c(O)c(C(C)(C)C)c1` [MDL 104,535, Phenol, 2,6-bis(1,1-dimethylethyl)-4-[(3,7-dimethyl-6-octenyl)oxy]-,(R)-], for which the inhibition at 50 µM worked out at 10%.

A further series deals with VCAM-1. Put plainly: Inhibition of cytokine-induced VCAM-1 expression in human aortic smooth muscle cells (cell ELISA). To be noted: HASMC, interleukin-4 stimulated, average of three runs, read-out: VCAM-1 (% inh. 50 µM). In kind it is cell-based. How it is done:
as §2, §3
Consider `CC(C)CCCC(C)CCOc1ccc(O)c(C(C)(C)C)c1` (centres unmarked) [MDL 104,191, Phenol, 2-(1,1-dimethylethyl)-4-[(3,7-dimethyloctyl)oxy]-], for which the inhibition at 50 µM came to 42.9 ± 7%.

For `CC(C)=CCC[C@@H](C)CCOc1cc(C(C)(C)C)c(O)c(C(C)(C)C)c1` [MDL 104,535, Phenol, 2,6-bis(1,1-dimethylethyl)-4-[(3,7-dimethyl-6-octenyl)oxy]-,(R)-], the inhibition at 50 µM is 26.4 ± 14%.

System in the next series: not listed separately
The series can be described thus: Animal parameters (food, body weight, liver weight/body weight, mortality) in rats. To be noted: % of control; grams eaten per day per rat; diet 0.3%, 4 days; N = 5. In kind it is in vivo.
Source text: as §1
With `CC(C)CCCC(C)CCOc1ccc(O)c(C(C)(C)C)c1` (centres unmarked) [MDL 104,191, Phenol, 2-(1,1-dimethylethyl)-4-[(3,7-dimethyloctyl)oxy]-], the food was determined as 76%.

The molecule `CC(C)=CCC[C@@H](C)CCOc1cc(C(C)(C)C)c(O)c(C(C)(C)C)c1` [MDL 104,535, Phenol, 2,6-bis(1,1-dimethylethyl)-4-[(3,7-dimethyl-6-octenyl)oxy]-,(R)-] registered a food of 95%.

Staying with this series, now noted: % of control; liver weight/body weight; rat; diet 0.3%, 4 days; N = 5.
For `CC(C)CCCC(C)CCOc1ccc(O)c(C(C)(C)C)c1` (centres unmarked) [MDL 104,191, Phenol, 2-(1,1-dimethylethyl)-4-[(3,7-dimethyloctyl)oxy]-], the lw/bw is reported as 126%.

In turn, `CC(C)=CCC[C@@H](C)CCOc1cc(C(C)(C)C)c(O)c(C(C)(C)C)c1` [MDL 104,535, Phenol, 2,6-bis(1,1-dimethylethyl)-4-[(3,7-dimethyl-6-octenyl)oxy]-,(R)-] returned a lw/bw of 119%.

The same series, now with this note: % of control; weight in grams; rat; diet 0.3%, 4 days; N = 5.
The molecule `CC(C)CCCC(C)CCOc1ccc(O)c(C(C)(C)C)c1` (centres unmarked) [MDL 104,191, Phenol, 2-(1,1-dimethylethyl)-4-[(3,7-dimethyloctyl)oxy]-] gave a body wt. of 92%.

As to `CC(C)=CCC[C@@H](C)CCOc1cc(C(C)(C)C)c(O)c(C(C)(C)C)c1` [MDL 104,535, Phenol, 2,6-bis(1,1-dimethylethyl)-4-[(3,7-dimethyl-6-octenyl)oxy]-,(R)-], the body wt. stood at 102%.

Still in this series, the particulars now being: male, Sprague-Dawley, rat, in vivo, 4 days.
In the case of `CC(C)CCCC(C)CCOc1ccc(O)c(C(C)(C)C)c1` (centres unmarked) [MDL 104,191, Phenol, 2-(1,1-dimethylethyl)-4-[(3,7-dimethyloctyl)oxy]-], the mortality was determined as 0%.

On to `CC(C)=CCC[C@@H](C)CCOc1cc(C(C)(C)C)c(O)c(C(C)(C)C)c1` [MDL 104,535, Phenol, 2,6-bis(1,1-dimethylethyl)-4-[(3,7-dimethyl-6-octenyl)oxy]-,(R)-], for which the mortality came to 0%.

In another series the test system is ICAM-1. Put plainly: Inhibition of ICAM-1 expression in proliferating human umbilical vein endothelial cells (cell ELISA). In kind it is cell-based. To be noted: HUVEC, coincubated with tumor necrosis factor-alpha about 20 to 24 hr, average of two runs, read-out: ICAM-1 (% inh. 50 µM). How it is done: as §2, with “reader. […] In these experiments, the cells were coincubated with tumor necrosis factor-alpha along with the indicated compounds about 20 to 24 hr before assaying cell surface adhesion molecule expression.” for “reader.”
As for `CC(C)CCCC(C)CCOc1ccc(O)c(C(C)(C)C)c1` (centres unmarked) [MDL 104,191, Phenol, 2-(1,1-dimethylethyl)-4-[(3,7-dimethyloctyl)oxy]-], the inhibition at 50 µM was found to be 70.5%.

As to `CC(C)=CCC[C@@H](C)CCOc1cc(C(C)(C)C)c(O)c(C(C)(C)C)c1` [MDL 104,535, Phenol, 2,6-bis(1,1-dimethylethyl)-4-[(3,7-dimethyl-6-octenyl)oxy]-,(R)-], the inhibition at 50 µM is 11.5%.

The record behind these values is EP0942896B1, “SUBSTITUTED PHENOLS AND THIOPHENOLS USEFUL AS ANTIOXIDANT AGENTS” (Aventis Pharmaceuticals Inc., priority 1996, dated 1998).
